Source: US20190101551A1, “Real-time and Continuous Measurement in Vivo Using Aptamer-Based Biosensors” (The Regents of the University of California, priority 2016, published 2019)

How the values were obtained:
in vivo = conditions: male, Sprague-Dawley, rat
Method: (§1) All in vivo measurements were performed using a two-electrode setup in which the reference and counter electrodes were a silver wire coated with a silver chloride film as described above. The measurements carried out in vivo were recorded using a handheld potentiostat.
(§2) In vivo Experiments Animals. Adult male Sprague-Dawley rats (300-500 g) were pair housed in a temperature and humidity controlled vivarium on a 12-h light-dark cycle and provided ad libitum access to food and water. All animal procedures were consistent with the guidelines of the NIH Guide for Care and Use of Laboratory Animals.
(§3) Surgery. For the anesthetized preparation, rats were anesthetized using isoflurane gas inhalation (2.5%) and monitored throughout the experiment using a pulse oximeter to measure heart rate and % SpO2 to insure depth of anesthesia. After exposing both ventral jugular veins, a simple catheter made from a [sequence] tube (Dow Corning, Midland, Mich., USA) fitted with a steel cannula was implanted into the left jugular vein. 0.1-0.3 mL of heparin (1000 U/mL) were immediately infused through the catheter to prevent blood clotting. The sensor was inserted into the right jugular vein and secured in place with surgical suture.
(§4) Measurements. A 30-minute sensor baseline was established before the first drug infusion. For anesthetized animals, a 3 mL syringe filled with the target drug was connected to the sensor-free catheter (placed in the jugular opposite that in which the sensor is emplaced) and placed in a motorized syringe pump. After establishing a stable baseline, the target drug was infused through this catheter at a rate of 0.2 mL/min. Target drugs included kanamycin (0.1 M solution), gentamicin (10 mg/mL), tobramycin (0.1 M solution), and doxorubicin (1.0 mM). After drug infusion, recordings were taken for up to 2 hours before the next infusion.
(§5) Sensors were fabricated using an aptamer recognizing the aminoglycoside antibiotics. Using these sensors, monotonically increasing intravenous doses of kanamycin were administered spanning the therapeutic ranges used in humans (10-30 mg/kg) and animals (25-30 mg/kg).
(§6) The pharmacokinetics of tobramycin were monitored following sequential 20 mg/kg intravenous injections conducted 2 hours apart in each of three rats.

[1] = Continuous real-time in vivo measurement of drug levels in blood with membrane-protected EAB sensors in the jugular vein of rats; conditions: anesthetized Sprague-Dawley rats, after each injection
Method: as §1, §2, §3, §4, §5, §6

[2] = male, Sprague-Dawley, rat, in vivo, iv
Method: as §1, §2, §3, §4, §5, §6

In the case of `COc1cccc2c1C(=O)c1c(O)c3c(c(O)c1C2=O)C[C@@](O)(C(=O)CO)C[C@@H]3O[C@H]1C[C@H](N)[C@H](O)[C@H](C)O1` [DOX, doxorubicin], the Cmax (in vivo) is reported as about 600 nM and the “time to effective clearance of 90% of the drug from the circulatory system” value [1] is reported as at most 50 min.
With `NC[C@H]1O[C@H](O[C@H]2[C@H](O)[C@@H](O[C@H]3O[C@H](CO)[C@@H](O)[C@H](N)[C@H]3O)[C@H](N)C[C@@H]2N)[C@H](O)[C@@H](O)[C@@H]1O` [kanamycin] the “maximum concentrations depending on the delivered dose” value [2] was 34 to 400 µM and the maximum concentration observed ([2]; 10 mg/kg) was 200 µM.
